Measurements from US8258295B2, “Triazine derivatives, compositions containing such derivatives, and methods of treatment of cancer and autoimmune diseases using such derivatives” (Prometic Biosciences Inc., priority 2007, dated 2012).
Read-outs that look alike come from different tables or passages of the source.

Experiments:
[1] = system: PC-3 human prostate carcinoma cell; test: MTT cytotoxicity on PC-3; assay type: cell-based
Description: (§1) This assay was performed to determine the effect of compounds of the present invention on cell cytotoxicity. Cells were incubated in presence or absence of compounds in their respective conditioned media. After 24 hr or 72 hr incubation, 50 μl of 3-(4,5-dimethyl-2-thiazyl)-2,5-diphenyl-2H-tetrazolium bromide (MTT; 2 mg/ml) was added and further incubated for 4 hr. The supernatant was discarded and 100 μl of dimethylsulfoxide (DMSO) was added. Absorbance was read at 570 nm with a TecanSunrise ELISA plate reader. The control group consisted of cells without compounds and is referred to as 100% of viable cells. IC50 was determined using Prism software.
(§2) All compounds have weak effect on cell cytotoxicity. The predictive utility of cell based cytotoxicity assays to assess the potential in vivo anticancer activity of compounds with selected cancer cell lines is well established in the art and the use of whole cells, instead of isolated protein receptors or enzymes, provides a more reliable determination of activity. See, for example, Paull et al. (J. Nat'l Cancer Inst. 81:1088-1092, 1989); Monks et al. (J. Nat'l Cancer Inst. 83:757-766, 1991); Bandes et al. (J. Nat'l Cancer Inst. 86:770-775, 1994); and Kamate et al. (Int'l J. Cancer 100:571-579, 2002).

[2] = system: P815 murine mastocytoma cell; test: MTT cytotoxicity on P815; assay type: cell-based; conditions: Mus musculus
Description: as §1, §2

TNFα = TNFα (Homo sapiens, UniProt P01375); test: TNFα-induced apoptosis in WEHI-13VAR cell line; assay type: cell-based; conditions: for inhibition at 10 µM: 1 × 10^−5 M; for inhibition at 20 µM: 2 × 10^−5 M; for inhibition at 40 µM: 4 × 10^−5 M; for inhibition at 5 µM: 5 × 10^−6 M
Description: Effect of compounds on TNFα-induced apoptosis was measured by a standard biological assay using WEHI-13VAR cells. These cells undergo apoptosis when they are incubated in the presence of TNFα and actinomycin D. 2×10^4 WEHI-13VAR cells were incubated in RPMI supplemented with 1% sodium pyruvate and 10% FBS, overnight at 37° C. for cell adherence. The cells were then cultured in the presence of 1 μg/ml of actimomycin D ([…]) and 0.04 nM TNFα with or without compounds at 37° C. After 16 hr to 24 hr, 50 μl of a solution of 2 mg/ml of MIT was added to each well and the plate was then incubated for 4 hr at 37° C. Only viable cells metabolize MTT to form formazan salt, which is detectable by the measurement of absorbance at 570 nm. After the incubation, the plate was inverted to remove medium and dead cells. 150 μDMSO was added to each well to stop the reaction and solubilize the formazan salt. Optical density was read on a Bio-Tek EL 800 UV microplate reader. A decrease in the optical density is direct evidence of cell apoptosis induced by TNFα. Compounds were also compared to the activity of an anti-TNFα neutralizing antibody.

[3] = system: oxazolone-induced delayed-type hypersensitivity (DTH); test: Oxazolone-induced delayed-type hypersensitivity (DTH) in mice; assay type: in vivo
Description: Compounds were tested for their ability to treat oxazolone-induced delayed-type hypersensitivity (DTH) in mice. […] On day 0, day 1, and day 2, mice were treated by intravenous (IV) or oral (PO) administrations of the vehicle (control) or methotrexate (MTX; positive control/IV) or hydrocortisone (positive control/PO) or the compound at concentration lower than or equal to 50 mg/kg or as specified. Mice were challenged with an application of 50 μl of oxazolone on the surface of the right ear (first challenge, day 3; second challenge, day 10). Ear thickness was measured on day 4 to day 7, and on day 11 to 14. Redness and crust formation was also observed. Mice were sacrificed on day 14. TDTH (CD4) cells play an important role in regulating the intensity of the DTH response. Compounds may exert an inhibitory influence on the DTH response through its inhibition of T-cell activation and DNA, RNA, and/or protein synthesis.

[4] = system: adjuvant-induced arthritis (AIA); test: Freund's adjuvant-induced arthritis (AIA) in Lewis rats; assay type: in vivo; conditions: female Lewis rats, oral administration; FIG. 18
Description: AIA was induced in female Lewis rats by the injection of lyophilized Mycobacterium butyricum suspended in mineral oil into the footpad. The development of arthritis was monitored over a 3-week period post-adjuvant injection. Inflammation peaks at day 3 following the adjuvant administration. Immune activation appears around day 10 to day 16. Compounds were orally administered from day −3 to day 21. Body weight was recorded. The arthritis index, which is a measure of inflammation (edema), redness, and stiffness of the articulations, was used to monitor the development of the disease. The degree of arthritis was determined by measuring two perpendicular diameters of the ankles in the mediolateral and dorsoventral planes using a caliper. Joint circumference in millimeters is then calculated using a geometric formula.

[5] = system: LPS-induced inflammation in the rat air-pouch model; test: LPS-induced inflammation in rat air-pouch model; assay type: in vivo, rats; conditions: IV, pouch exudate
From the text: LPS-induced inflammation in the rat air-pouch model is believed to mimic the pathological process occurring in joint diseases such as arthritis. This is because the connective tissues formed along the air pouch are similar to those found in chronic joint diseases. LPS-induced inflammation and chronic joint diseases share other features, including markedly elevated PGE2, neutrophil infiltration, cytokine formation, and tissue damage.
An air cavity was produced at day −6 by subcutaneous injection of 20 ml of sterile air into the intrascapular area of the back of male Lewis rats (175 to 200 g). An additional 10 ml of air was injected into the cavity at day −3 to keep the space open. At day 0, compounds were administered intravenously and one hour later lipopolysaccharide (LPS: 2.5 ml of 2 μg/ml in PBS) was injected into the pouch to produce an inflammatory reaction. […] The pouch fluid was collected. The volume of exudates was measured and the number of leukocytes present in the exudates was determined with a Coulter counter. The differential count was determined by Wright-Giemsa staining. PGE2, LTB4, MCP, and TNFα were determined in the pouch exudates by specific ELISAs.

[6] = system: NHDF (normal human dermal fibroblast); test: MTT cytotoxicity on NHDF; assay type: cell-based
Description: as §1, §2

[7] = system: HUVEC (human umbilical vein endothelial cell); test: MTT cytotoxicity on HUVEC; assay type: cell-based
Description: as §1, §2

[8] = 24 hr culture, read-out: IC50 of 24-hour culture PC-3
[9] = 72 hr culture, read-out: IC50 of 72-hour culture PC-3
[10] = 24 hr culture, read-out: IC50 of 24-hour culture P815
[11] = 72 hr culture, read-out: IC50 of 72-hour culture P815

TNFα, sequence (P01375 77-233 limits assumed, species assumed): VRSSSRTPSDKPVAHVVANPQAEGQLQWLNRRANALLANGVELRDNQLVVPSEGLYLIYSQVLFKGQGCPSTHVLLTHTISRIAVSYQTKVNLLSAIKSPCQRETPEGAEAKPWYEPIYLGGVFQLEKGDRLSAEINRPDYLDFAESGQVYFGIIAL

SMILES | inhibition at 10 µM (TNFα) [%] | inhibition at 20 µM (TNFα) [%] | inhibition at 40 µM (TNFα) [%] | inhibition at 5 µM (TNFα) [%] | IC50 [1, 8] [µM] | IC50 [1, 9] [µM] | IC50 [2, 10] [µM] | IC50 [2, 11] [µM] | also measured
NCCCCNc1nc(NCCc2ccc(S(N)(=O)=O)cc2)nc(Nc2cccc(F)c2)n1 [Compound IX] | 29.8 | 46.7 | 65.5 | 13.2 |  |  |  |  | 
COc1ccc2c(c1)c(CC(=O)O)c(C)n2C(=O)c1ccc(Cl)cc1 [indomethacin, reference compound] |  |  |  |  |  |  |  |  | severity of arthritis (inflammatory index) [4]: significant reduction in the severity of arthritis; PGE2 production induced by LPS ([5]; twelve hours after induction, FIG. 21B): significant inhibition; TNFα production induced by LPS ([5]; twelve hours post-LPS induction, FIG. 21A): weak inhibition; TNFα production induced by LPS ([5]; two hours after induction, FIG. 20A): increase the concentration of TNFα; PGE2 production induced by LPS ([5]; two hours after induction, FIG. 20B): significant inhibition; LTB4 production induced by LPS ([5]; two hours after induction, FIG. 20C): did not affect the production of LTB4; MCP-1 production induced by LPS ([5]; two hours after induction, FIG. 20D): significant increase
NCCCCCNc1nc(Nc2cccc(F)c2)nc(-c2cccc(F)c2)n1 [XII] |  |  |  |  |  | 9 |  | 21.7 | 
NCCCCCNc1nc(Nc2ccc(S(N)(=O)=O)cc2)nc(Nc2cccc(F)c2)n1 [Compound VIII] | 35.6 | 48.1 | 55.6 | 17 | 31 | 5.2 | 10.9 | 2.9 | 
CN(C)S(=O)(=O)c1ccc(CCNc2nc(NCCCCCN)nc(Nc3cccc(F)c3)n2)cc1 [Compound III] | 52 | 89.7 |  | 20.4 | 30.1 | 27.6 | 13.6 | 5.5 | inflammation (ear thickness) after DTH ([3]; oral 50 mg/kg, first challenge of oxazolone): significant reduction of the inflammation; inflammation (ear thickness) after DTH ([3]; oral 50 mg/kg, second challenge of oxazolone): significant reduction of the inflammation

Now from value to molecule, other results behind:

inhibition at 10 µM (TNFα) [%] | inhibition at 20 µM (TNFα) [%] | inhibition at 40 µM (TNFα) [%] | inhibition at 5 µM (TNFα) [%] | SMILES | IC50 [1, 8] [µM] | IC50 [1, 9] [µM] | IC50 [2, 10] [µM] | IC50 [2, 11] [µM] | also measured
65.8 | 99.9 | 118 | 30 | NCCCCCNc1nc(NCCc2ccc(S(N)(=O)=O)cc2)nc(Nc2ccc(F)cc2)n1 [Compound VII] | 17.7 | 14.1 | 12.6 | 4 | 
44.4 | 79.9 | 53.9 | 19.4 | CN(C)S(=O)(=O)c1ccc(CCNc2nc(NCCCCCN)nc(Nc3ccc(F)cc3)n2)cc1 [Compound X] |  |  |  |  | inflammation (ear thickness) after DTH ([3]; IV 5 mg/kg, first challenge of oxazolone): significant reduction of the inflammation
54.8 | 74.1 | 89.5 | 28.2 | NCCCCCNc1nc(NCCc2ccc(C(N)=O)cc2)nc(Nc2cccc(F)c2)n1 [Compound VI] |  |  |  |  | 
14.6 | 23.7 | 35 | 9.9 | NCCCCCNc1nc(NCC(O)c2ccc(O)cc2)nc(Nc2ccc(F)cc2)n1 (stereo not shown) [Compound XI] |  |  |  |  | inflammation (ear thickness) after DTH ([3]; IV 25 mg/kg, first challenge of oxazolone): significant reduction of the inflammation
13.1 | 31.6 | 47.2 | 3.7 | NCCCCCNc1nc(NCCc2ccc(N)cc2)nc(Nc2ccc(F)cc2)n1 [Compound IV] | 56.6 | 51.9 | 33 |  | IC50 ([6]; 24 hr culture, read-out: IC50 of 24-hour culture NHDF): 82.1 µM; IC50 ([6]; 72 hr culture, read-out: IC50 of 72-hour culture NHDF): 42.5 µM; IC50 ([7]; 24 hr culture, read-out: IC50 of 24-hour culture HUVEC): 51.3 µM; IC50 ([7]; 72 hr culture, read-out: IC50 of 72-hour culture HUVEC): > 100 µM; inflammation (ear thickness) after DTH ([3]; oral 50 mg/kg, FIG. 15): significant reduction of the inflammation
